The text below walks through data of patent publication US5712300A, “Hydroxamic acid derivatives useful for the treatment of diseases related to connective tissue degradation” (priority 1997, dated 1998).

Holding throughout (format): biochemical
The target of assay [1] is Gelatinase. Put plainly: MMP inhibition by particle concentration fluorescence technique (gelatinase). The note with it: pH 7.5; 15 min enzyme preincubation; substrate 1-3 h at room temperature; read-out: MMP Inhibition Constants, Gelatinase Ki. An outline of the steps:
(§1)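 Compound serially diluted two-fold in 50 mM Tris-HCl pH 7.5, 150 mM NaCl, preincubated 15 min with activated enzyme at room temperature. Fluorescein/biotin-tagged substrate then added for 1-3 hours in the dark. Intact substrate captured on avidin-coated particles; fluorescence signal indicates inhibition.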

Assay [2] has as its target T1, Collagenase (Homo sapiens, UniProt P03956).
T1 sequence (P03956 100-469): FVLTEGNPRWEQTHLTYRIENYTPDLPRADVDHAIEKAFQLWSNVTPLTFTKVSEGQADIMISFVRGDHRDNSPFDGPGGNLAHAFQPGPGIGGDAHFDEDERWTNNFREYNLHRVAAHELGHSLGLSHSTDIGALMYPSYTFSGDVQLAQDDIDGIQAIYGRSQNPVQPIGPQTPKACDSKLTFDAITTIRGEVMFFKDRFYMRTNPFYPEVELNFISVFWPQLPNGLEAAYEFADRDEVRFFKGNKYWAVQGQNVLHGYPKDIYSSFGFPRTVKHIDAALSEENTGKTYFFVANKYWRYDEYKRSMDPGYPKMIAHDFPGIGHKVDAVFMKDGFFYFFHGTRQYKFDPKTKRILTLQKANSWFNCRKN
Put plainly: MMP inhibition by particle concentration fluorescence technique (collagenase). The following applies: pH 7.5; 15 min enzyme preincubation; substrate 1-3 h at room temperature; read-out: MMP Inhibition Constants, Collagenase Ki. Put shortly: as §1

Assay [3] concerns the target Stromelysin (Homo sapiens, UniProt P08254). Nature of the assay: MMP inhibition by particle concentration fluorescence technique (stromelysin). The note with it: pH 7.5; 15 min enzyme preincubation; substrate 1-3 h at room temperature; read-out: MMP Inhibition Constants, Stromelysin Ki. An outline of the steps:
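Fluorescein- and biotin-labelled substrate captured on avidin particles after reaction; intact, uncleaved substrate retains fluorescence, so signal rises with inhibition. Activated enzyme incubated with two-fold serial compound dilutions 15 minutes at room temperature.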

Sequence of Stromelysin (P08254 100-477): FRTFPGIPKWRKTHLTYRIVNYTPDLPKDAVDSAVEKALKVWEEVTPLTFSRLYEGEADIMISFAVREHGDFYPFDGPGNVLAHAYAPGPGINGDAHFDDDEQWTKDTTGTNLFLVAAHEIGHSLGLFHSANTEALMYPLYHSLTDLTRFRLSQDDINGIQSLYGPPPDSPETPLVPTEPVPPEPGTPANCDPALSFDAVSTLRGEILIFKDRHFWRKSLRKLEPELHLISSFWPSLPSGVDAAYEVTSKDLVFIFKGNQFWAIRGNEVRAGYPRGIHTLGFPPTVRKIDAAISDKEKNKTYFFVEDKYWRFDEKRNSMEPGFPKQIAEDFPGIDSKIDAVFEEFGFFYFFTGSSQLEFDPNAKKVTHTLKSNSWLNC

By Ki is commonly meant the dissociation constant of the complex between target and ligand, obtained from inhibition or displacement. With `CNC(=O)[C@H](Cc1ccccc1)N1CC[C@](CC(=O)NO)(CC2CCCC2)C1=O` [Example 52, [S-(R*,R*)]-3-(Cyclopentylmethyl)-N^3-hydroxy-N^1-methyl-2-oxo-α^1-(phenylmethyl)-1,3-pyrrolidinediacetamide], the Ki in assay [1] is 1.1 nM; in assay [2], 1.3 nM; in assay [3] it was 187 nM.

For the molecule `CNC(=O)[C@H](Cc1ccccc1)N1CC[C@@](CC(C)C)([C@H](CCNC(=O)c2ccccc2)C(=O)NO)C1=O` [Example 53, [3S-[1(R*),3R*(R*)]]-α^3-[2-(Benzoylamino)ethyl]-N^3-hydroxy-N^1-methyl-3-(2-methylpropyl)-2-oxo-α^1-(phenylmethyl)-1,3-pyrrolidinediacetamide], the Ki is 1.06 nM in assay [1], 0.69 nM in assay [2] and 10.5 nM in assay [3].

For the molecule `CC(C)C[C@@]1(CC(=O)NO)CCN([C@@H](Cc2ccccc2)C(=O)NCCN2CCOCC2)C1=O` [Example 54, [S-(R*,R*)]-N^3 -Hydroxy-3-(2-methylpropyl)-N^1-[2-(4-morpholinyl)ethyl]-2-oxo-α^1-(phenylmethyl)-1,3-pyrrolidinediacetamide], the Ki in assay [1] came out at 70 nM; in assay [2], 76 nM; in assay [3], 700 nM.

Regarding `CC(C)C[C@@]1(CC(=O)NO)CCN([C@@H](Cc2ccccc2)C(=O)N2CCOCC2)C1=O` [Example 55, [S-(R*,R*)]-N-Hydroxy-3-(2-methylpropyl)-1-[2-(4-morpholinyl)-2-oxo-1-(phenylmethyl)ethyl]-2-oxo-3-pyrrolidineacetamide], the Ki was 211 nM in assay [1], 750 nM in assay [2] and 1900 nM in assay [3].

In the case of `CC(C)C[C@@]1(CC(=O)NO)CCN([C@@H](Cc2ccccc2)C(=O)Nc2ccccn2)C1=O` [Example 57, [S-(R*,R*)]-N^3 -Hydroxy-3-(2-methylpropyl)-2-oxo-α^1-(phenylmethyl)-N^1-2-pyridinyl-1,3-pyrrolidinediacetamide], the figures for the Ki in assay [1], in assay [2] and in assay [3] were 9.5 nM, 12 nM and 75 nM, respectively.

For `CC(C)C[C@@]1(CC(=O)NO)CCN([C@H](C(=O)Nc2ccc(F)cc2)C2CCCCC2)C1=O` [Example 60, [S-(R*,R*)]-α^1 -Cyclohexyl-N^1-(4-fluorophenyl)-N^3-hydroxy-3-(2-methylpropyl)-2-oxo-1,3-pyrrolidinediacetamide], the Ki in assay [1] came to 12.3 nM; in assay [2] it was 18 nM; in assay [3], 19 nM.

Regarding `CCCOc1ccc2c(c1)C(=O)N(CCC(C(=O)NO)C1(CC(C)C)CCN(CCc3ccccc3)C1=O)C2=O` (stereo not drawn) [Example 62, N-Hydroxy-3-(2-methylpropyl)-2-oxo-1-(2-phenylethyl)-α-[2-(5-propyloxy-1,3-dihydro-1,3-dioxo-2H-isoindol-2-yl)ethyl]-3-pyrrolidineacetamide], the Ki in assay [1] was determined as 310 nM; in assay [2], 55000 nM; in assay [3] it was 369 nM.

With `CC(C)C[C@@]1([C@@H](CCN2C(=O)c3ccc(F)cc3C2=O)C(=O)NO)CCN(CCc2ccccc2)C1=O` [Example 63, [R-(R*,S*)]-5-Fluoro-1,3-dihydro-N-hydroxy-α-[3-(2-methylpropyl)-2-oxo-1-(2-phenylethyl)-3-pyrrolidinyl]-1,3-dioxo-2H-isoindole-2-butanamide], the results for the Ki in assay [1], in assay [2] and in assay [3] were 32 nM, 1500 nM and 58 nM, respectively.

With `CC(C)CC1(C(CCN2C(=O)c3cc(F)c(F)cc3C2=O)C(=O)NO)CCN(CCc2ccccc2)C1=O` (stereo not drawn) [Example 64, α-[2-(5,6-Difluoro-1,3-dihydro-1,3-dioxo-2H-isoindol-2-yl)ethyl]-N-hydroxy-3-(2-methylpropyl)-2-oxo-1-(2-phenylethyl)-3-pyrrolidineacetamide], the figures for the Ki in assay [1], in assay [2] and in assay [3] were 49 nM, 735 nM and 107 nM, respectively.

As to `CC(C)C[C@@]1([C@@H](CCNC(=O)c2cccc(F)c2)C(=O)NO)CCN(CCc2ccccc2)C1=O` [Example 74, [R-(R*,S*)-α-[2-[(3-Fluorobenzoyl)amino]ethyl]-N-hydroxy-3-(2-methylpropyl)-2-oxo-1-(2-phenylethyl)-3-pyrrolidineacetamide], the Ki stood at 21 nM in assay [1], 26 nM in assay [2] and 52 nM in assay [3].

Consider `CC(C)C[C@@]1([C@@H](CCN2Cc3ccc(F)cc3C2=O)C(=O)NO)CCN(CCc2ccccc2)C1=O` [Example 87, [R-(R*,S*)]-6-Fluoro-1,3-dihydro-N-hydroxy-α-[3-(2-methylpropyl)-2-oxo-1-(2-phenylethyl)-3-pyrrolidinyl]-1-oxo-2H-isoindole-2-butanamide], for which the results for the Ki in assay [1], in assay [2] and in assay [3] were 4.88 nM, 230 nM and 91 nM, respectively.

On to `CC(C)C[C@@]1([C@@H](CCN2Cc3cc(F)ccc3C2=O)C(=O)NO)CCN(CCc2ccccc2)C1=O` [Example 88, [R-(R*,S*)]-5-Fluoro-1,3-dihydro-N-hydroxy-α-[3-(2-methylpropyl)-2-oxo-1-(2-phenylethyl)-3-pyrrolidinyl]-1-oxo-2H-isoindole-2-butanamide], for which the Ki in assay [1] came out at 62 nM; in assay [2] it was 326 nM; in assay [3], 288 nM.

For `O=C(NCC[C@@H](C(=O)NO)[C@]1(CCCO)CCN(CCc2ccccc2)C1=O)c1cccc(F)c1` [Example 96, [R-(R*,S*)]-α-[2-[(3-Fluorebenzoyl)amino]ethyl]-N-hydroxy-3-(3-hydroxypropyl)-2-oxo-1-(2-phenylethyl)-3-pyrrolidineacetamide], the Ki in assay [1] worked out at 0.98 nM; in assay [2] it was 12.7 nM; in assay [3] it was 8.7 nM.
